# According to BigSolDB 2.1:
# Details: in n-hexane
Compound,solubility (mole fraction) (293.15 K),solubility (mole fraction) (298.15 K),solubility (mole fraction) (303.15 K),solubility (mole fraction) (308.15 K),solubility (mole fraction) (313.15 K)
CC(C)c1ccc(N=C2[Se]CC3CCCN2C3)cc1 (stereo not given),0.000481,0.00056,0.000643,0.000725,0.000819
Fc1ccc(N=C2[Se]CC3CCCN2C3)cc1 (stereo not given),0.00115,0.00121,0.00128,0.00134,0.00143
Cc1ccc(N=C2[Se]CC3CCCN2C3)cc1Cl (stereo not given),0.000536,0.000551,0.000567,0.000581,0.000595
